Experimental findings from BindingDB's records for doi:10.1016/s0960-894x(99)00064-5 (Institut De Chimie Organique De L'Universit&#233, 1999) are described below.

Each structure is given as a SMILES string.

Experiment [1] concerns the target Beta-galactosidase (Canavalia ensiformis). In words: Inhibition constant against beta-galactosidase enzyme of jack bean was reported.
Experiment [2] has the same target. Described as above. The source holds these as a separate data set.

In the case of `CC(=O)N[C@H]1C(O)O[C@H](C(O)CO)[C@@H]1C[C@H]1O[C@H](CO)[C@@H](O)[C@H](O)[C@@H]1O` (some centres not stated) [N-[2,5-Dihydroxy-6-hydroxymethyl-4-(3,4,5-trihydroxy-6-hydroxymethyl-tetrahydro-pyran-2-ylmethyl)-tetrahydro-pyran-3-yl]-acetamide and N-[5-(1,2-Dihydroxy-ethyl)-2-hydroxy-4-(3,4,5-trihydroxy-6-hydroxymethyl-tetrahydro-pyran-2-ylmethyl)-tetrahydro-furan-3-yl]-acetamide], half-maximal inhibition in experiment [1] (IC50) was put at 9.4 µM. For the same molecule, the Ki (usually a dissociation constant, usually derived from enzyme kinetics or from competition with a known ligand) in experiment [2] amounted to 7.5 µM.
